ChEMBL document CHEMBL1140004, “2-Arylimino-5,6-dihydro-4H-1,3-thiazines as a new class of cannabinoid receptor agonists. Part 1: discovery of CB2 receptor selective compounds” (Bioorg Med Chem Lett, 2007)
Activity calls are given as the source filed them. The rule behind the calls is not given here.

Tests used:
Cannabinoid receptor 2 [1] = biological target: T1, Cannabinoid receptor 2 (Homo sapiens, UniProt P34972); assay: Displacement of [3H]CP-55940 from human CB2 receptor
Cannabinoid receptor 2 [2] = biological target: Cannabinoid receptor 2 (Mus musculus, UniProt P47936); assay: Displacement of [3H]CP-55940 from mouse CB2 receptor
Sequence of Cannabinoid receptor 2 (Mus musculus, UniProt P47936) (P47936 whole entry): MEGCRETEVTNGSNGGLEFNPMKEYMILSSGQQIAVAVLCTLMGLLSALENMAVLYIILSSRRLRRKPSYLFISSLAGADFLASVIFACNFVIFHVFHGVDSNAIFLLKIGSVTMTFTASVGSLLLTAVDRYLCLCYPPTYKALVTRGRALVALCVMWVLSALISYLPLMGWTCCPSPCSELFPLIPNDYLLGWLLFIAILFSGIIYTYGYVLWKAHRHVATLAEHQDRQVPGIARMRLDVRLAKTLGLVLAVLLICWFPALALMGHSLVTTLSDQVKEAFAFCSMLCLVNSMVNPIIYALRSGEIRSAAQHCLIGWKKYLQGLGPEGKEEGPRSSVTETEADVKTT

Cannabinoid receptor 2 [3] = biological target: T1, Cannabinoid receptor 2; assay: Agonist activity at human CB2 in CHO cells assessed as inhibition of cAMP production; type: functional, cell-based
Cannabinoid receptor 1 [4] = biological target: T2, Cannabinoid receptor 1 (Homo sapiens, UniProt P21554); assay: Displacement of [3H]CP-55940 from human CB1 receptor
T2 sequence (P21554 whole entry): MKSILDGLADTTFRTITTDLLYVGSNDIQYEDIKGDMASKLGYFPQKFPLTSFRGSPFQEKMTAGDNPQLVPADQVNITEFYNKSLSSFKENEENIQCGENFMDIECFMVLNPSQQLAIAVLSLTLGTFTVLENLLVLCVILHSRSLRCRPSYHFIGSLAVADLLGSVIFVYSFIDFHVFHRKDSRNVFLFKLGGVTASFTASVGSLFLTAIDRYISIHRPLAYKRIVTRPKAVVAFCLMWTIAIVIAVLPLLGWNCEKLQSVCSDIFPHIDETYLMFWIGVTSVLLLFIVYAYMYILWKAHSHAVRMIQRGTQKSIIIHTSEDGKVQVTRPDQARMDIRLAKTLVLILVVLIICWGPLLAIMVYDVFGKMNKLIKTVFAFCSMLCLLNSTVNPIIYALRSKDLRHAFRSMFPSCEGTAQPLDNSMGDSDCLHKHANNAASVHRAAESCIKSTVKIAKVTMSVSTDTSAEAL

Cannabinoid receptor 1 [5] = biological target: Cannabinoid receptor 1 (Mus musculus, UniProt P47746); assay: Displacement of [3H]CP-55940 from mouse CB1 receptor
Sequence of Cannabinoid receptor 1 (Mus musculus, UniProt P47746) (P47746 whole entry): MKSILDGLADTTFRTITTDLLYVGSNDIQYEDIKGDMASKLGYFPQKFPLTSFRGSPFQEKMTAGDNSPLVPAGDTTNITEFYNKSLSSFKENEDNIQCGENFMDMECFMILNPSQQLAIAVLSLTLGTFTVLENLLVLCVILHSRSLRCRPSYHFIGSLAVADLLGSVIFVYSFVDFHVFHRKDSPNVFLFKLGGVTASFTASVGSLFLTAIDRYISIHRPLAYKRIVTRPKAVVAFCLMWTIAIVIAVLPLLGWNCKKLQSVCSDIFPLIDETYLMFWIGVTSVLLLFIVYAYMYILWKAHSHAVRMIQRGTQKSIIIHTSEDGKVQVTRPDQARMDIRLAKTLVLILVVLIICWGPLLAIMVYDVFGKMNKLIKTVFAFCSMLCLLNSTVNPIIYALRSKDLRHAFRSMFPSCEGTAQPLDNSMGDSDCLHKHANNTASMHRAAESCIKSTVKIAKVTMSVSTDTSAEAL

Cannabinoid receptor 1 [6] = biological target: T2, Cannabinoid receptor 1; assay: Agonist activity at human CB1 in CHO cells assessed as inhibition of cAMP production; type: functional, cell-based
[7] = Half life in rat at 2 mg/kg, iv or 30 mg/kg, po; type: ADME, organism-based; conditions: in vivo
[8] = Clearance in rat at 2 mg/kg, iv or 30 mg/kg, po; type: ADME, organism-based; conditions: in vivo
[9] = AUC in rat at 30 mg/kg, po; type: ADME, organism-based; design: dose 30 mg/kg, route oral; conditions: plasma
[10] = Bioavailability in rat at 30 mg/kg, po; type: ADME, organism-based; conditions: in vivo
Mus musculus [11] = assay: Analgesic activity in sc dosed ICR mouse right hind paw of assessed as formalin induced licking; type: functional, organism-based
Mus musculus [12] = assay: Analgesic activity in sc dosed ICR mouse right hind paw in presence of SR-144528 assessed as inhibition of formalin induced licking; type: functional, organism-based

T1 sequence (P34972 whole entry): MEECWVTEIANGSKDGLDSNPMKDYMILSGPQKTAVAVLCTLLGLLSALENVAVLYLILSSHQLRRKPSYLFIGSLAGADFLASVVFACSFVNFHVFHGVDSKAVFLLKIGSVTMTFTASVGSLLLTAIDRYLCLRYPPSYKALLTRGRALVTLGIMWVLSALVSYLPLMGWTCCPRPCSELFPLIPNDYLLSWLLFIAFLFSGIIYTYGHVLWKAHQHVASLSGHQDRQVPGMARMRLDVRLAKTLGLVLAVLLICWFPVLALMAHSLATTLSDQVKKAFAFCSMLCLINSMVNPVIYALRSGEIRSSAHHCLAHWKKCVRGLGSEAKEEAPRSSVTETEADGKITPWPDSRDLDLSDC

Structure (SMILES)	Ki (Cannabinoid receptor 2 [1]) [nM]	also measured
CCNC(=S)N1CC(C)(C)CS/C1=N\c1ccccc1C(C)C	> 5000	–
CSC(=S)N1CC(C)(C)CS/C1=N\c1c(C)cccc1C	> 5000	–
Cc1c(C(=O)c2cccc3ccccc23)c2cccc3c2n1[C@H](CN1CCOCC1)CO3 [WIN-552122]	–	Ki (Cannabinoid receptor 2 [2]): 6 nM
CSC(=S)N1CC(C)(C)CS/C1=N\c1ccccc1C(C)(C)C	313	–
CC(C)c1ccccc1/N=C1/NCC(C)(C)CS1	> 5000	–
CC(C)c1ccccc1/N=C1\SCC(C)(C)CN1Cc1ccccc1	1360	–
CCOc1ccccc1/N=C1\SCC(C)(C)CN1C(=S)SC	84	–
CCOC(=S)N1CC(C)(C)CS/C1=N\c1ccccc1C(C)C	230	–
CSC(=S)N1CC(C)(C)CS/C1=N\c1ccccc1C(F)(F)F	141	–
CCSC(=S)N1CC(C)(C)CS/C1=N\c1ccccc1C(C)C	35	–
CSC(=S)N1CC(C)(C)CS/C1=N\c1ccccc1Br	371	–
CSC(=S)N1/C(=N/c2ccccc2C(C)C)SCCC1C (stereo unspecified)	> 5000	–
CCCN1CC(C)(C)CS/C1=N\c1ccccc1C(C)C	915	–
CSC(=S)N1CC(C)(C)CS/C1=N\c1ccccc1F	252	–
CSC(=S)N1CC(C)(C)CS/C1=N\c1ccccc1-c1ccccc1	989	–
CCSC(=O)N1CC(C)(C)CS/C1=N\c1ccccc1C(C)C	48	–
CSC(=S)N1CC(C)(C)CS/C1=N\c1ccc(C(C)C)cc1	22	–
CSC(=S)N1CCC(C)S/C1=N\c1ccccc1C(C)C (stereo unspecified)	> 5000	–

Structure (SMILES)	Ki (Cannabinoid receptor 2 [1]) [nM]	also measured
CSC(=S)N1CC(C)(C)CS/C1=N\c1ccccc1Cl	722	–
CSC(=S)N1CC(C)(C)CS/C1=N\c1ccccc1	316	–
CSC(=S)N1CC(C)(C)CS/C1=N\c1cccc(C(C)C)c1	33	–
COc1ccccc1/N=C1\SCC(C)(C)CN1C(=S)SC	18	–
CCOC(=O)N1CC(C)(C)CS/C1=N\c1ccccc1C(C)C	428	IC50 (Cannabinoid receptor 2 [3]): 322 nM; Ki (Cannabinoid receptor 2 [2]): 187 nM; Ki (Cannabinoid receptor 1 [4]): > 5000 nM; Ki (Cannabinoid receptor 1 [5]): > 5000 nM; IC50 (Cannabinoid receptor 1 [6]): > 5000 nM
CCNC(=O)N1CC(C)(C)CS/C1=N\c1ccccc1C(C)C	> 5000	–
CSC(=S)N1CCCS/C1=N\c1ccccc1C(C)C	1580	–
CCCSC(=S)N1CC(C)(C)CS/C1=N\c1ccccc1C(C)C	119	–
CC(C)SC(=S)N1CC(C)(C)CS/C1=N\c1ccccc1C(C)C	275	–
CCCc1ccccc1/N=C1\SCC(C)(C)CN1C(=S)SC	57	–
CCN1CC(C)(C)CS/C1=N\c1ccccc1C(C)C	4880	–
CSC(=S)N1CC(C)CS/C1=N\c1ccccc1C(C)C (stereo unspecified)	98	–
CSC(=S)N1CC(C)(C)CS/C1=N\c1ccccc1C(C)C	9	IC50 (Cannabinoid receptor 2 [3]): 6.1 nM; Ki (Cannabinoid receptor 2 [2]): 9 nM; Ki (Cannabinoid receptor 1 [4]): > 5000 nM; Ki (Cannabinoid receptor 1 [5]): 2020 nM; IC50 (Cannabinoid receptor 1 [6]): > 5000 nM; half-life [7]: 36 min; clearance [8]: 83.3 mL/min/kg; AUC [9]: 1100 ng·h/mL; bioavailability [10]: 18%; Activity (Mus musculus [11]): Active; Activity (Mus musculus [12]): inactive
CCc1ccccc1/N=C1\SCC(C)(C)CN1C(=S)SC	54	–
CSC(=S)N1CC(C)(C)CS/C1=N\c1ccccc1Oc1ccccc1	2920	–
CCC(=O)N1CC(C)(C)CS/C1=N\c1ccccc1C(C)C	2090	–
CSC(=S)N1CC(C)(C)CS/C1=N\c1ccccc1C	202	–
